From the supplement of paper PMC11208160
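Note: IS621 bridge recombinase in Escherichia coli cells against a fixed T5 target plasmid.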

Assay: recombinant UMI read abundance after kanamycin selection (control-corrected) (log10(CPM+1)); higher = more efficient recombination; extreme values may be limits of the assay; sequences stand for … in AGTGCAGAGAAAATCGGCCAGTTTTCTCTGCCTGCAGTCCGCATGCCGTGGGACCCCTTGGGTTCTAACCTGTTGCCTAGATTTATGCAGCGGACTGCCTTTCTCCCAAAGTGATAAACCGG…AGGTTGGTTTCACT; site = the 11-nt donor
Outline: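 In a pooled Escherichia coli screen for the IS621 bridge recombinase, donor and donor-binding-loop pairs were each placed with a 12-nt UMI on a plasmid bearing a promoterless kanamycin gene. This library was co-electroporated with a target plasmid encoding a fixed target and T7-inducible recombinase, and cells were plated either on IPTG (0.07 mM) plus kanamycin or without selection, in two replicates each. Recombinant UMIs were PCR-amplified across the donor–target junction and sequenced, and counts were converted to CPM, averaged over replicates, scaled by control-derived factors and reported as log10(CPM+1).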
For “ATTGAGACATGGACCGGTTTTCCCGGTAATCCGTATTTGGT (site ATTGAGACTAA)”, the “recombinant UMI read abundance (log10)” value was 0.949. With “ATTGAGACATGGACCGGTTTTCCCGGTAATCCGTATTTGGT (site ATTGAGACTAC)” the “recombinant UMI read abundance (log10)” value was 1.39. For “ATTGAGACATGGACCGGTTTTCCCGGTAATCCGTATTTGGT (site ATTGAGACTAG)”, the “recombinant UMI read abundance (log10)” value was 0.772. With “ATTGAGACATGGACCGGTTTTCCCGGTAATCCGTATTTGGT (site ATTGAGACTAT)” the “recombinant UMI read abundance (log10)” value was 1.17. In the case of “ATTGAGACATGGACCGGTTTTCCCGGTAATCCGTATTTGGT (site ATTGAGACTCC)”, the “recombinant UMI read abundance (log10)” value is reported as 0.379. For “ATTGAGACATGGACCGGTTTTCCCGGTAATCCGTATTTGGT (site ATTGAGACTGC)”, the “recombinant UMI read abundance (log10)” value was 0.953. For “ATTGAGACATGGACCGGTTTTCCCGGTAATCCGTATTTGGT (site ATTGAGACTTC)”, the “recombinant UMI read abundance (log10)” value was 0.0155. In the case of “ATTGAGACATGGACCGGTTTTCCCGGTAATCCGTATTTGGT (site ATTGAGCCTAC)”, the “recombinant UMI read abundance (log10)” value is reported as 0.0258. For “ATTGAGACATGGACCGGTTTTCCCGGTAATCCGTATTTGGT (site ATTGAGGCTAC)”, the “recombinant UMI read abundance (log10)” value was 0.186. With “ATTGAGACATGGACCGGTTTTCCCGGTAATCCGTATTTGGT (site ATTGAGTCTAC)” the “recombinant UMI read abundance (log10)” value was 1.06. With “ATTGAGACATGGACCGGTTTTCCCGGTAATCCGTATTTGGT (site ATTGATACTAC)” the “recombinant UMI read abundance (log10)” value was 0.512. With “ATTGAGACATGGACCGGTTTTCCCGGTAATCCGTATTTGGT (site ATTGCGACTAC)” the “recombinant UMI read abundance (log10)” value was 0.151. In the case of “ATTGAGACATGGACCGGTTTTCCCGGTAATCCGTATTTGGT (site ATTGGGACTAC)”, the “recombinant UMI read abundance (log10)” value is reported as 0.407. For “ATTGAGACATGGACCGGTTTTCCCGGTAATCCGTATTTGGT (site ATTGTGACTAC)”, the “recombinant UMI read abundance (log10)” value was 0.471. In the case of “ATTGAGACATGGACCGGTTTTCCCGGTAATCCGTATTTGGT (site ATTTAGACTAC)”, the “recombinant UMI read abundance (log10)” value is reported as 0.353. In the case of “ATTGAGACATGGACCGGTTTTCCCGGTAATCCGTATTTGGT (site CTTGAGACTAC)”, the “recombinant UMI read abundance (log10)” value is reported as 0.935. For “ATTGAGACATGGACCGGTTTTCCCGGTAATCCGTATTTGGT (site GTTGAGACTAC)”, the “recombinant UMI read abundance (log10)” value was 0.235. In the case of “ATTGAGACATGGACCGGTTTTCCCGGTAATCCGTATTTGGT (site TTTGAGACTAC)”, the “recombinant UMI read abundance (log10)” value is reported as 0.435. For “ATTGATACATGGACCGGTTTTCCCGGTAATCCGTATTTGGT (site ATTGAAACTAC)”, the “recombinant UMI read abundance (log10)” value was 0.445. With “ATTGATACATGGACCGGTTTTCCCGGTAATCCGTATTTGGT (site ATTGACACTAC)” the “recombinant UMI read abundance (log10)” value was 0.179. In the case of “ATTGATACATGGACCGGTTTTCCCGGTAATCCGTATTTGGT (site ATTGAGACTAC)”, the “recombinant UMI read abundance (log10)” value is reported as 0.00596. With “ATTGATACATGGACCGGTTTTCCCGGTAATCCGTATTTGGT (site ATTGATACTAC)” the “recombinant UMI read abundance (log10)” value was 1.33. With “ATTGCAACATGGACCGGTTTTCCCGGTAATCCGTATTTGGG (site ATTGCAACTCC)” the “recombinant UMI read abundance (log10)” value was 0.0185. In the case of “ATTGCCCCATGGACCGGTTTTCCCGGTAATCCGTATTTGTC (site ATTGCCCCTGA)”, the “recombinant UMI read abundance (log10)” value is reported as 0. In the case of “ATTGCGGCATGGACCGGTTTTCCCGGTAATCCGTATTTGCT (site ATTGCGGCTAG)”, the “recombinant UMI read abundance (log10)” value is reported as 1.27. With “ATTGCGGCATGGACCGGTTTTCCCGGTAATCCGTATTTGCT (site CTTGCGGCTAG)” the “recombinant UMI read abundance (log10)” value was 0.161. With “ATTGCGGCATGGACCGGTTTTCCCGGTAATCCGTATTTGCT (site GTTGCGGCTAG)” the “recombinant UMI read abundance (log10)” value was 0.0081. With “ATTGCGGCATGGACCGGTTTTCCCGGTAATCCGTATTTGCT (site TTTGCGGCTAG)” the “recombinant UMI read abundance (log10)” value was 0.371. With “ATTGCGGCATGGACCGGTTTTCCCGGTAATCCGTATTTGGG (site ATTGCGGCTCC)” the “recombinant UMI read abundance (log10)” value was 0.0219. With “ATTGGTACATGGACCGGTTTTCCCGGTAATCCGTATTTGCG (site ATTGGTACTCG)” the “recombinant UMI read abundance (log10)” value was 1.35. With “ATTGTGACATGGACCGGTTTTCCCGGTAATCCGTATTTGGT (site ATTGAGACTAC)” the “recombinant UMI read abundance (log10)” value was 0.524. In the case of “ATTGTGACATGGACCGGTTTTCCCGGTAATCCGTATTTGGT (site ATTGCGACTAC)”, the “recombinant UMI read abundance (log10)” value is reported as 0.0121.
